In ChEMBL document CHEMBL4680302, “Biologic-like In Vivo Efficacy with Small Molecule Inhibitors of TNFα Identified Using Scaffold Hopping and Structure-Based Drug Design Approaches” (J Med Chem, 2020):
In brackets after ≈: the same amount, converted by molar mass. Activity calls are given as the source filed them. The calls are words filed in the database; no cut-off is given here.

Experiments:
[1] = Metabolic stability in rat liver microsomes assessed as half-life; assay type: ADME, Microsome
[2] = Metabolic stability in mouse liver microsomes assessed as half-life; assay type: ADME, Microsome
[3] = Solubility of compound; assay type: physicochemical
[4] = Volume of distribution at steady state in mouse at 0.5 mg/kg, iv; assay type: ADME, organism-based; details: in vivo, read-out: Vdss
[5] = tested on: Mus musculus; assay: Antiinflammatory activity in TNFalpha-induced C57BL/6J mouse assessed as inhibition of serum IL-6 levels at 5 to 25 mg/kg, po pretreated with compound prior to 1 hr of TNFalpha challenge and measured 2 hrs post TBFalpha challenge by ELISA; assay type: functional, organism-based; details: dose 5-25 mg/kg, time 3.0 hrs

`Cc1nc2cc(F)c(-c3cnc(C(C)(C)O)nc3)nc2c(N[C@H](C)c2cc(C#N)ccc2F)c1Cl` gave a half-life [1] of 1.15 h, a half-life [2] of 1.3 h and a solubility [3] of 1 µg/mL (≈ 2.02 µM). The Vd [4] was 3.2 L/kg and the Activity [5] was “Active”.
